Measured values as given in US4605669A, “Lipoxygenase inhibiting naphthohydroxamic acids” (Abbott Laboratories, priority 1985, dated 1986).
Like-named read-outs stand apart in the source and are kept apart here. Values belong to the compound of their own block, whether it stands above or below them.

What was measured:
Type in all cases: biochemical
15-lipoxygenase = target: T1, 15-lipoxygenase (Glycine max, UniProt P08170); experiment: Inhibition of 15-lipoxygenase obtained from soybean; conditions: for inhibition at 10 µM: read-out: % Inhibition at Indicated Concentration, 15-lipoxygenase, 10 uM; for inhibition at 100 µM: read-out: % Inhibition at Indicated Concentration, 15-lipoxygenase, 100 uM
T1 construct: 15-lipoxygenase obtained from soybean; from tissue; host or cells: soybean
T1 sequence (P08170 1-839): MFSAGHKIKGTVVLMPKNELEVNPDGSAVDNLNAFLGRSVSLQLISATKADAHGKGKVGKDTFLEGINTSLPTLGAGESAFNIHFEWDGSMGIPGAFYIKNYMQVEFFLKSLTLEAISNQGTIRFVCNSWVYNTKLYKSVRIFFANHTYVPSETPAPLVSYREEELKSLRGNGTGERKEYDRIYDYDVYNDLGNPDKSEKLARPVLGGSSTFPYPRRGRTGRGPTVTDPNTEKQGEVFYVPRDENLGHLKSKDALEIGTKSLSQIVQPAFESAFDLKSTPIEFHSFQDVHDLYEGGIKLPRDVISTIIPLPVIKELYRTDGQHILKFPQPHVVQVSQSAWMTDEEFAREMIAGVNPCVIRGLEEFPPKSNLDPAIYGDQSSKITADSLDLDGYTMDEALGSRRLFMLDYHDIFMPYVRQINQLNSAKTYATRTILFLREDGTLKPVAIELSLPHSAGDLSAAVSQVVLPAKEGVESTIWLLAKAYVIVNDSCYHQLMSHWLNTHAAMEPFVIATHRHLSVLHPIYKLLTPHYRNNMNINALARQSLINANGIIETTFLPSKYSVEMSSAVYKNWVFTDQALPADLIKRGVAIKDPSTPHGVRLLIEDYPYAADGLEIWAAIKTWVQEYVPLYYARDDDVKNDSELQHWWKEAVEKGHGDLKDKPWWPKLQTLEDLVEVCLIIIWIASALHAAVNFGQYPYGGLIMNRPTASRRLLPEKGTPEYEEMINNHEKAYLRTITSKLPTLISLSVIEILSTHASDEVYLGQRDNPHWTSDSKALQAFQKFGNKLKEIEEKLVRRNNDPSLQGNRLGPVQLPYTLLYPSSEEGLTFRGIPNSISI
Method: (§1) The compounds of this invention are potent inhibitors of 5-, 12- and 15-lipoxygenase. An assay to determine 5-lipoxygenase activity was performed in incubations containing various concentrations of the test compound and the 20,000×G supernatant from 7.5×10^6 homogenized RBL-1 cells. Reactions were initiated by the addition of radiolabeled arachidonic acid and terminated by acidification and ether extraction. Reaction products were separated from nonconverted substrate by thin layer chromatography and measured by liquid scintillatiton spectroscopy. Inhibition of 5-lipoxygenase activity was calculated as the ratio of the amounts of product formed in the presence and absence of inhibitor.
(§2) The inhibitory activities of the compounds of this invention against 12- and 15-lipoxygenase can be determined in the foregoing assay in which 12-lipoxygenase obtained from human platelets, or 15-lipoxygenase obtained from soybean, is substituted for the 5-lipoxygenase-containing cell supernatant fraction.

5-lipoxygenase = target: T2, 5-lipoxygenase (Rattus norvegicus, UniProt P12527); experiment: 5-Lipoxygenase IC50 determination (20,000×G supernatant of homogenized RBL-1 cells, radiolabeled arachidonic acid); conditions: 20,000×G supernatant from homogenized RBL-1 cells
T2 construct: homogenized RBL-1 cells; endogenous in cells; host or cells: RBL-1 cells (20,000×G supernatant of homogenate)
T2 sequence (P12527 1-673): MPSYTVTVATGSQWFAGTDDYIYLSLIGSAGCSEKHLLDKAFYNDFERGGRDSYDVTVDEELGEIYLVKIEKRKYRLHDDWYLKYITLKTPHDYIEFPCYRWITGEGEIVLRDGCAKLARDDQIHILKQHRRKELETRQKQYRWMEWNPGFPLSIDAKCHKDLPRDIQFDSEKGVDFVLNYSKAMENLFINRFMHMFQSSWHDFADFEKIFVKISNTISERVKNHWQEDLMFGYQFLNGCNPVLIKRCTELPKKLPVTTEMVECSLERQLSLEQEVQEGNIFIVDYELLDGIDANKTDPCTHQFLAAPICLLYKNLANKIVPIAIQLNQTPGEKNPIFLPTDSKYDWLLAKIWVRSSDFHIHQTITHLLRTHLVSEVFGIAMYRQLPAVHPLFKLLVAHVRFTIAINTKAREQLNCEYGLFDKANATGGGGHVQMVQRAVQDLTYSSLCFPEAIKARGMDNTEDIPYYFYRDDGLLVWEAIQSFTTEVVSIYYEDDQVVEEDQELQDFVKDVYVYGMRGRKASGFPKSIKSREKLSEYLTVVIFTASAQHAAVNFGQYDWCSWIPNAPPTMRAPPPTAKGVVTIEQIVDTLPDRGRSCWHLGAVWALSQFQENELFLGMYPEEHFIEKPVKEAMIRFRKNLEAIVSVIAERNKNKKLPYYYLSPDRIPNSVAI
Method: Reactions were initiated by the addition of radiolabeled arachidonic acid and terminated by acidification and ether extraction. Reaction products were separated from nonconverted substrate by thin layer chromatography and measured by liquid scintillatiton spectroscopy. Inhibition of 5-lipoxygenase activity was calculated as the ratio of the amounts of product formed in the presence and absence of inhibitor.

12-lipoxygenase = target: T3, 12-lipoxygenase (Homo sapiens, UniProt P18054); experiment: Inhibition of 12-lipoxygenase obtained from human platelets; conditions: human platelet 12-lipoxygenase
T3 construct: 12-lipoxygenase obtained from human platelets; from tissue; host or cells: human platelets
T3 sequence (P18054 1-663): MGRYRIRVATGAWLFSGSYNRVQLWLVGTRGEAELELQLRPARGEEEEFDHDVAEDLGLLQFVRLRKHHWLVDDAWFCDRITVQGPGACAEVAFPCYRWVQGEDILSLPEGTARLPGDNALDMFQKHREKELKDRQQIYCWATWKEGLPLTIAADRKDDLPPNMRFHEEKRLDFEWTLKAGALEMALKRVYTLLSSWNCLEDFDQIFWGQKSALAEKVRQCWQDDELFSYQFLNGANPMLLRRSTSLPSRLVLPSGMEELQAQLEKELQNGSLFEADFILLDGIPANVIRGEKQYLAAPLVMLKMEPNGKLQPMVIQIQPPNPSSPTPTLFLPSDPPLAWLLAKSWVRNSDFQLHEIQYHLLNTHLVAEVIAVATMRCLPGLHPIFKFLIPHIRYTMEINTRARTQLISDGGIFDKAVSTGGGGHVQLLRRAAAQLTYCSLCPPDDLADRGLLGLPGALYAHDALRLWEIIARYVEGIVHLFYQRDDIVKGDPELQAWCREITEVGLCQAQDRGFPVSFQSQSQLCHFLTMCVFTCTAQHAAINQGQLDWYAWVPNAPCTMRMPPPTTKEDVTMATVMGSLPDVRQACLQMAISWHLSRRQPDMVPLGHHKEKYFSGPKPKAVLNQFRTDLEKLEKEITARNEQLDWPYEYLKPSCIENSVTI
Method: as §1, §2

[1] = 100 uM, soybean 15-lipoxygenase

Compound: COc1ccc2cc(C(=O)NO)ccc2c1 [Example 2, 6-Methoxy-2-naphthohydroxamic acid]
inhibition at 10 µM (15-lipoxygenase): 23%
inhibition at 100 µM (15-lipoxygenase): 44%
IC50 (5-lipoxygenase): 8 µM

% Inhibition at Indicated Concentration, 12-lipoxygenase, 10 uM (12-lipoxygenase; 10 uM): 74%
% Inhibition at Indicated Concentration, 12-lipoxygenase, 100 uM (12-lipoxygenase; 100 uM): 77%
% Inhibition at Indicated Concentration, 15-lipoxygenase, 10 uM (15-lipoxygenase; 10 uM, soybean 15-lipoxygenase): 10%
% Inhibition at Indicated Concentration, 15-lipoxygenase, 100 uM (15-lipoxygenase; [1]): 70%
IC50 (5-lipoxygenase): 2.9 µM
Compound: 6-(1-non-2-enoxy)-2-naphthohydroxamic acid [Example 8]

Compound: CCCCOc1ccc2cc(C(=O)NO)ccc2c1 [Example 3, 6-(1-butoxy)-2-naphthohydroxamic acid]
inhibition at 10 µM (15-lipoxygenase; 10 uM, soybean 15-lipoxygenase): 45%
inhibition at 100 µM (15-lipoxygenase; [1]): 51%
IC50 (5-lipoxygenase): 2 µM

IC50 (5-lipoxygenase): 4.6 µM
Compound: C=CCOc1ccc2cc(C(=O)NO)ccc2c1 [Example 7, 6-(1-prop-2-enoxy)-2-naphthohydroxamic acid]

IC50 (5-lipoxygenase): 20 µM
Compound: CCCCCCCCCOc1ccc2cc(C(=O)NO)ccc2c1 [Example 1, 6-(1-nonoxy)-2-naphthohydroxamic acid]

Compound: CCCCCCCOc1ccc2cc(C(=O)NO)ccc2c1 [Example 5, 6-(1-heptoxy)-2-naphthohydroxamic acid]
IC50 (5-lipoxygenase): 7.1 µM

IC50 (5-lipoxygenase): 30 µM
Compound: O=C(NO)c1ccc2cc(OCc3ccccc3)ccc2c1 [Example 9, 6-(benzyloxy)-2-naphthohydroxamic acid]

Compound: CCCCCCCCOc1ccc2cc(C(=O)NO)ccc2c1 [Example 6, 6-(1-octoxy)-2-naphthohydroxamic acid]
inhibition at 10 µM (12-lipoxygenase; 10 uM, read-out: % Inhibition at Indicated Concentration, 12-lipoxygenase, 10 uM): 68%
inhibition at 100 µM (12-lipoxygenase; 100 uM, read-out: % Inhibition at Indicated Concentration, 12-lipoxygenase, 100 uM): 71%
IC50 (5-lipoxygenase): 6.5 µM

Compound: CCCCOc1ccc2cc(C(=O)N(C)O)ccc2c1 [Example 4, N-methyl-6-(1-butoxy)-2-naphthohydroxamic acid]
inhibition at 10 µM (15-lipoxygenase; 10 uM, soybean 15-lipoxygenase): 29%
inhibition at 100 µM (15-lipoxygenase; [1]): 74%
IC50 (5-lipoxygenase): 0.41 µM
